Consider 19 molecules from PubChem BioAssay (NCI).

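Growth conditions: 96-well plates. Treatment: test compound, 48 hours, 5 concentrations. Analysis: linear interpolation between bracketing concentrations; unreached endpoints set to highest concentration. GI50 = concentration required for 50% inhibition of growth. TGI: total growth inhibition.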

For orientation: TGI means the concentration at which net growth stops. Broadly, the GI50 is the concentration giving 50% growth inhibition.

Assay in all cases: DTP human tumour cell line panel, 48 h
The subject of test [1] is A549 NSCLC.
In test [2] the test system is ACHN renal.
The subject of test [3] is HCC-2998 colon.
Test [4] concerns HCT-15 colon.
The test system of test [5] is HOP-62 NSCLC.
The subject of test [6] is NCI-H23 lung.
The subject of test [7] is SR leukemia.
Test [8] concerns SW-620 colon.
For test [9], the system named is TK-10 renal.
Test [10] has as its system UACC-62 melanoma.

On to `OCC(O)C(O)C(O)C1SC(c2ccccc2)=NN1c1ccccc1` (stereo unspecified), for which the TGI was over 100 µM in [1]; over 83 µM in [2]; over 100 µM in test [3]; over 100 µM in test [4]; over 100 µM in test [5]; over 95.7 µM in [6]. Moreover, the total growth inhibition concentration (TGI) in test [7] was over 100 µM; in test [8], over 100 µM; in test [9], over 95.7 µM; in test [10] it was 74.2 µM.

Regarding `C=C(Cl)COC(=O)Nc1cccc(Cl)c1`, the TGI in [1] was over 100 µM; in [2], over 100 µM; in test [3], over 100 µM; in test [4] it was over 100 µM; in test [5], over 100 µM; in [6] it was 90.2 µM. Moreover, the total growth inhibition concentration (TGI) in [7] is over 100 µM; in [8], over 100 µM; in test [9], over 100 µM; in test [10], 59.5 µM.

Regarding `COc1ccc(C2=NN(C(=O)COc3ccc(Cl)cc3)C(O)(c3cc(F)c(Cl)cc3Cl)C2)cc1OC` (stereo unspecified), the GI50 was 6.24 µM in test [1]; 1.63 µM in test [2]; 3.91 µM in test [3]; 1.39 µM in test [4]; 13.9 µM in test [5]; 4.74 µM in [6]. For the same molecule, the GI50 was 1.97 µM in test [7], 0.869 µM in test [8], 2.36 µM in [9] and 5.6 µM in test [10]. The TGI in test [1] is 18.7 µM; in test [2], 3.28 µM; in [3], 13.3 µM; in [4], 3 µM; in [5], 30.8 µM; in test [6], 17.8 µM. Moreover, the TGI in test [7] is 6.89 µM; in test [8], 2.58 µM; in test [9] it was 5.09 µM; in [10], 18.7 µM.

With `N#CCc1ccc(C(C#N)/C(CCCC(=O)Nc2cccc([N+](=O)[O-])c2)=N\NC(=O)NN)cc1` (stereo unspecified), the TGI in test [1], in test [2], in test [3], in test [4], in test [5] and in test [6] was over 100 µM each time. Also, the TGI in [7], in [8], in test [9] and in test [10] was over 100 µM throughout.

On to `COc1cc(NC(=O)c2cc(OC)c3ccn(C)c3c2)cc2c1C[C@]1(C)CC[C@@H](O)C(C)(C)[C@H]1O2`, for which the GI50 in test [1] was 10.3 µM; in [2], 5.31 µM; in test [3], 13.4 µM; in test [4], 5.13 µM; in test [5] it was 8.78 µM; in [6], 17.3 µM. Also, the GI50 was 2.96 µM in test [7], 11.2 µM in test [8], 35.9 µM in test [9] and 4.31 µM in [10]. The total growth inhibition concentration (TGI) in test [1], in test [2], in test [3], in test [4], in test [5] and in test [6] was over 100 µM in each case. Besides, the TGI in [7] was over 100 µM; in test [8], over 100 µM; in [9], over 100 µM; in test [10], 49.6 µM.

Take `CC(=O)Nc1nc(SCc2ccccc2)c2ncn(C(C)=O)c2n1`: the GI50 was over 100 µM in test [1]; 61.6 µM in test [2]; over 100 µM in test [3]; 93 µM in test [4]; 62.7 µM in test [5]; over 100 µM in test [6]. The GI50 in test [7] is over 100 µM; in [8], over 100 µM; in test [9] it was 23.4 µM; in test [10] it was 61.8 µM. Further, the TGI in test [1], in test [2], in [3], in test [4], in test [5] and in test [6] was over 100 µM in each case. Moreover, the TGI is over 100 µM in test [7], over 100 µM in test [8], 78.3 µM in [9] and over 100 µM in test [10].

Consider `NCCCC(=O)Nc1ccncc1`, for which the GI50 in [1], in [2], in test [3], in [4], in test [5] and in test [6] was over 100 µM each time. Further, the GI50 in test [7], in [8], in [9] and in test [10] was over 100 µM each time. Besides, the total growth inhibition concentration (TGI) in test [1], in [2], in test [3], in test [4], in test [5] and in test [6] was over 100 µM each time. The concentration for total growth inhibition (TGI) in test [7], in test [8], in test [9] and in test [10] was over 100 µM throughout.

With `COc1c(C)c2c(c(O)c1C/C=C(\C)CCC(=O)OCCN1CCOCC1)C(=O)OC2`, the GI50 in test [1] was 0.289 µM; in test [2], 0.458 µM; in test [3], 0.39 µM; in [4] it was 0.0928 µM; in test [5] it was 0.457 µM; in [6], 0.245 µM. The concentration for 50% growth inhibition (GI50) is 0.24 µM in [7], 0.142 µM in [8], over 24.7 µM in test [9] and 0.354 µM in test [10]. For the same molecule, the TGI in test [1], in test [2], in test [3], in [4], in [5] and in [6] was over 100 µM throughout. Moreover, the total growth inhibition concentration (TGI) in [7] is 32.6 µM; in test [8], over 100 µM; in test [9], over 100 µM; in test [10] it was over 100 µM.

In the case of `CCCc1ccc(S(=O)(=O)N[C@H]2CC[C@H]3[C@@H]4CCc5cc(O)ccc5[C@H]4CC[C@]23C)cc1`, the GI50 in test [1] was 3.22 µM; in test [2], 2.57 µM; in [3] it was 4 µM; in [4] it was 2.26 µM; in [5] it was 4.65 µM; in test [6] it was 3.31 µM. The GI50 was 2.53 µM in test [7], 3.6 µM in [8], 3.8 µM in test [9] and 1.92 µM in test [10]. Moreover, the concentration for total growth inhibition (TGI) is 12.8 µM in [1]; 8.06 µM in test [2]; 13.7 µM in test [3]; 6.45 µM in [4]; 15.8 µM in test [5]; 14.6 µM in [6]. The total growth inhibition concentration (TGI) in test [7] stood at 8.06 µM; in test [8] it was 14.2 µM; in test [9], 13.7 µM; in test [10], 4.37 µM.

`NCCCN(CCCN)CCCNCc1c2ccccc2c(CNCCCN(CCCN)CCCN)c2ccccc12`: the TGI in [1] is over 100 µM; in test [2], 25.7 µM; in test [3], 20.1 µM; in test [4], 28.6 µM; in test [5] it was 32.9 µM; in test [6] it was 85.6 µM. Further, the TGI is over 100 µM in [7], 32.5 µM in test [8], 23.1 µM in test [9] and 21.5 µM in [10].

In the case of `CCCCCNC(=O)[C@@H]1CCCN2C(=O)CC[C@H](NC(=O)[C@H](Cc3ccc(OP(=O)(O)O)cc3)NC(C)=O)C(=O)N12`, the GI50 in test [1], in test [2], in test [3], in [4], in test [5] and in [6] was over 25 µM in each case. Moreover, the GI50 in [7], in test [8], in test [9] and in test [10] was over 25 µM each time. Besides, the TGI in [1], in test [2], in test [3], in test [4], in test [5] and in test [6] was over 25 µM throughout. Also, the TGI in test [7], in test [8], in test [9] and in [10] was over 25 µM in each case.

As for `S=c1[nH]c(=S)c2sc(=S)n(-c3ccccc3)c2[nH]1`, the total growth inhibition concentration (TGI) in test [1], in [2], in test [3], in test [4], in test [5] and in test [6] was over 100 µM each time. The TGI in test [7], in test [8], in test [9] and in test [10] was over 100 µM throughout.

`CCN(CC)CCOc1ccc(Nc2ncc3cc(-c4ccc(O)cc4)c(=O)n(C)c3n2)cc1`: the GI50 was 13.8 µM in [1]; 0.0618 µM in test [2]; 15.4 µM in test [3]; 0.191 µM in [4]; 2.78 µM in test [5]; 12.7 µM in [6]. In addition, the concentration for 50% growth inhibition (GI50) is 0.0662 µM in test [7], 2.01 µM in test [8], 3.9 µM in test [9] and 17.5 µM in test [10]. Moreover, the total growth inhibition concentration (TGI) stood at 30.7 µM in test [1]; 17.5 µM in [2]; 30.5 µM in test [3]; 1.75 µM in test [4]; 23.7 µM in test [5]; 36.2 µM in test [6]. The total growth inhibition concentration (TGI) in test [7] amounted to 2.76 µM; in [8], 4.01 µM; in test [9], 8.73 µM; in test [10], 41 µM.

Consider `O=[N+]([O-])c1ccc(-c2nc(N(CCO)CCO)c3ccccc3n2)o1`, for which the GI50 in test [1] was 0.128 µM; in test [2] it was 0.159 µM; in test [3], 0.194 µM; in test [4], 0.176 µM; in [5], 0.145 µM; in test [6] it was 0.1 µM. In addition, the GI50 in test [7] was 0.0881 µM; in [8], 0.265 µM; in [9] it was 0.286 µM; in [10] it was 0.196 µM. The concentration for total growth inhibition (TGI) was 0.822 µM in test [1]; 0.631 µM in test [2]; 0.442 µM in test [3]; 1.71 µM in [4]; 0.671 µM in [5]; 0.314 µM in test [6]. The TGI in [8] turned out to be 2.55 µM; in [10] it was 0.477 µM.

For the molecule `O=C(/C=C/C=C/c1ccccc1)CCc1ccccc1`, the TGI in test [1] is over 100 µM; in test [3], over 100 µM; in test [4] it was over 100 µM; in test [5] it was over 100 µM; in test [6] it was over 100 µM; in [7] it was 63.7 µM. Besides, the TGI in [8], in [9] and in test [10] was over 100 µM throughout.

Turning to `Cc1ccccc1C(=O)C#Cc1cn(C2CC(O)C(CO)O2)c(=O)[nH]c1=O` (stereo unspecified), the TGI in test [1], in test [2], in test [3], in test [4], in test [5] and in test [6] was over 100 µM in each case. The TGI in [7], in test [8], in [9] and in test [10] was over 100 µM each time.

For the molecule `O=C1C(=Cc2ccco2)C(=O)C2CCCCC12` (stereo unspecified), the concentration for total growth inhibition (TGI) in test [1], in [2], in [3], in test [4], in test [5] and in [6] was over 100 µM throughout. In addition, the concentration for total growth inhibition (TGI) in test [7], in test [8], in test [9] and in [10] was over 100 µM in each case.

As for `CC1(C)NCCC[C@]2(C)[C@H]3C=CC4=C5C[C@](C)(CO)CC[C@]5(C)CC[C@@]4(C)[C@]3(C)CC[C@@H]12`, the GI50 is 1.89 µM in test [1]; 2.93 µM in test [2]; 10.1 µM in [3]; 4.21 µM in [4]; 2.3 µM in test [5]; 3.15 µM in test [6]. Further, the GI50 in [7] is 2.42 µM; in [8], 5.76 µM; in test [9], 2.66 µM; in [10], 3.13 µM. For the same molecule, the concentration for total growth inhibition (TGI) in test [1] is 3.71 µM; in [2] it was 9.56 µM; in test [3], 23 µM; in [4], 16.4 µM; in [5], 5.16 µM; in test [6] it was 12.5 µM. Moreover, the TGI came out at 7.17 µM in test [7], 18.8 µM in test [8], 7.15 µM in test [9] and 10.9 µM in test [10].

As to `O=C(O)c1c2c(c(C(=O)O)c3ccccc13)-c1ccccc1-2`, the total growth inhibition concentration (TGI) in [1], in test [2], in [3], in test [5], in test [6] and in test [7] was over 100 µM throughout. Besides, the figures for the TGI in test [8], in test [9] and in test [10] were over 100 µM, over 100 µM and 65.9 µM, respectively.
